From patent US20110280812A1, “FLAVOR-ENHANCING AMIDE COMPOUNDS” (priority 2010, published 2011)

Columns and labels:
trained sensory panel [1] = test: Sensory panel evaluation of MSG (0.02%) combined with Formula II; assay type: in vivo
Procedure: The flavor compositions of MSG (0.02%) combined with (2E,4E)-N-phenethylundeca-2,4-dien-8,10-diynamide (Formula II) at different concentrations were evaluated by a trained sensory panel using an intensity scale of 0 to 5, where 0=none, 1=minimal, 3=moderate, and 5=intense. Averaged sensory scores were reported in the following: […]

trained sensory panel [2] = test: Sensory panel evaluation of MSG-IMP mixture combined with Formulas II-IV; assay type: in vivo; conditions: 0.01% MSG and 0.005% IMP; for effect on umami flavor of the MSG-IMP mixture: summary, no concentration stated
Source text: The MSG-inosine monophosphate (IMP) mixture (0.01% MSG and 0.005% IMP), an umami composition, was combined with Formulas II-IV at different concentrations and evaluated by a trained sensory panel.

N[C@@H](CCC(=O)O)C(=O)[O-].[Na+] [MSG, monosodium glutamate]
Flavor Profile (trained sensory panel [1]; Formula II 0): umami
Flavor Intensity (trained sensory panel [1]; Formula II 0, averaged sensory score, scale 0 to 5 (0=none, 1=minimal, 3=moderate, 5=intense)): 1.0

C#CC#CCC/C=C/C=C/C(=O)NCC(C)CC (stereo not drawn) [Formula IV, (2E,4E)-N-(2-methylbutyl)undeca-2,4-dien-8,10-diynamide]
effect on umami flavor of the MSG-IMP mixture (trained sensory panel [2]): enhanced the umami flavor of the MSG-IMP mixture

C#CC#CCC/C=C/C=C/C(=O)NCCc1ccccc1 [Formula II, (2E,4E)-N-phenethylundeca-2,4-dien-8,10-diynamide]
effect on umami flavor of MSG (trained sensory panel [1]; summary over the concentrations tested): enhanced the umami flavor of MSG
Flavor Profile: effect on umami flavor of the MSG-IMP mixture (trained sensory panel [2]; amide at 500 ppb): strongest enhancement
effect on umami flavor of the MSG-IMP mixture (trained sensory panel [2]): enhanced the umami flavor of the MSG-IMP mixture
